Assay results reported in article PMC7520419 (The AAPS Journal, 2020).
≈ marks a conversion by molar mass, not a printed value. Counter-ions that a name gives are not always drawn. Like-named read-outs stand apart in the source and are kept apart here.

Key:
[1] = Effective human jejunum permeability (Peff,man) used in the PBPK model; assay type: in vitro ADME
Description: Permeation rates of the compounds, including reference compounds, were measured in the apical-to-basolateral (AB) direction. The donor and receiver wells were sampled immediately after application of the compound to the donor well to determine baseline concentrations, and again after 1 h. Quantification was done using high-performance liquid chromatography combined with mass spectrometry (HPLC-MS/MS) analysis and monolayer integrity was verified by analyzing the receiver samples for LuY fluorescence in a plate reader.

[2] = Solubility measurement in aqueous buffer solutions; settings: for solubility: pH 6.5, aqueous buffer, thermodynamic from solid
Description: The solubility of the drug substances was determined in biorelevant media as well as in aqueous buffers at different pH. Fasted state simulated gastric fluid (FaSSGF) ([37]), fasted state simulated intestinal fluid (FaSSIF-V2) ([38]), and fed state simulated intestinal fluid (FeSSIF-V2) ([39]) were prepared according to the instructions provided by Biorelevant (Biorelevant.com Ltd., London, UK). […] For neutral compounds, solubility was determined at pH 2, pH 4, and pH 7.
For freely soluble compounds, the extent of solubilization was measured only up to 10 mg/mL.

[3] = Solubility measurement in biorelevant media (FaSSIF-V2, FeSSIF-V2); settings: for solubility: 37 °C, thermodynamic from solid
Caco-2 = settings: cited from earlier work
[4] = design: Food Effect (graded symbols): key to the marks not given beside the values; settings: cited from earlier work
[5] = PBPK food effect modeling (Simcyp V17.1 and/or GastroPlus V9.5; Model 1 / Model 2); design: species or system human
[6] = cited from earlier work; for Solubility at pH 6.5: not generated within this working group, ref Table I
[7] = design: method as in Table I reference column; settings: not generated within this working group; ref Table I; cited from earlier work
BCS classification = assay type: physicochemical
[8] = not generated within this working group, ref Table I
[9] = Model 1, fasted, ref published clinical data (Table I)
[10] = Model 1, fed, ref published clinical data (Table I)
[11] = Model 1, ref published clinical data (Table I)
[12] = Model 2, fasted, ref published clinical data (Table I)
[13] = Model 2, fed, ref published clinical data (Table I)
[14] = Model 2, ref published clinical data (Table I)
[15] = clinically observed PK change (AUC, Cmax) fed vs fasted, compiled by literature search
[16] = direction, AUC and/or Cmax ratio fed to fasted, BE criteria 0.8–1.25, ref drug label
[17] = FaSSIF-V2 (fasted state simulated intestinal fluid), FaSSIF solubility
[18] = FeSSIF-V2 (fed state simulated intestinal fluid), FeSSIF solubility
[19] = micronized formulation, healthy volunteers, high-fat breakfast

| Structure (SMILES) | AUC Ratio of Ratios (Sim'd / Obs'd) ([5]; Model 2) | Cmax Ratio of Ratios (Sim'd / Obs'd) ([5]; Model 2) | Effective permeability ([1]; human, 1 h) | solubility [2] | Apparent permeability (Caco-2) (Caco-2; [8]) | Observed AUC(0-inf) Fasted [4, 9] | Observed Cmax Fasted [4, 9] | Observed AUC(0-inf) Fed [4, 10] | Observed Cmax Fed [4, 10] | Observed AUC Ratios (Fed/Fasted) [4, 11] | Observed Cmax Ratios (Fed/Fasted) [4, 11] | Observed AUC(0-inf) Fasted [4, 12] | Observed Cmax Fasted [4, 12] | Observed AUC(0-inf) Fed [4, 13] | Observed Cmax Fed [4, 13] | Observed AUC Ratios (Fed/Fasted) [4, 14] | Observed Cmax Ratios (Fed/Fasted) [4, 14] | Food Effect [4, 16] | pKa (pKa; pKa (b, basic)) | pKa (pKa; pKa (a, acidic)) | other results |
| --- | --- | --- | --- | --- | --- | --- | --- | --- | --- | --- | --- | --- | --- | --- | --- | --- | --- | --- | --- | --- | --- |
| Cl.O=C1Cc2cc(CCN3CCN(c4nsc5ccccc45)CC3)c(Cl)cc2N1 [Ziprasidone HCl] | 1.05 | 0.88 |  |  |  |  |  |  |  |  |  |  |  |  |  |  |  |  |  |  | Effective permeability [1]: 230 ×10⁻⁶ cm/s; Solubility at pH 6.5 ([2]; room temperature): 1 μg/ml; FaSSIF solubility ([3]; 37°C): 4 µg/mL; FeSSIF solubility ([3]; 37°C): 13 µg/mL; Apparent permeability (Caco-2) (Caco-2; Caco-2): 12.3 (Caco-2)^^ × 10^−6 cm/s; Food Effect (graded symbols) ([4]; human, in vivo): ++; Observed AUC Ratios (Fed/Fasted) ([4]; human, in vivo): 2.01; Observed AUC(0-inf) Fasted ([4]; human, in vivo): 950 ng·h/mL; Observed AUC(0-inf) Fed ([4]; human, in vivo): 1910 ng·h/mL; Observed Cmax Fasted ([4]; human, in vivo): 84 ng/mL; Observed Cmax Fed ([4]; human, in vivo): 165 ng/mL; Observed Cmax Ratios (Fed/Fasted) ([4]; human, in vivo): 1.96 |
| NNC(=O)c1ccncc1 [Isoniazid] | 0.91 | 1.46 | 400 ×10⁻⁶ cm/s | 128000 µg/mL (≈ 933000 µM) | 16 (Caco-2)^^ × 10^−6 cm/s | 24600 ng·h/mL | 5000 ng/mL | 19500 ng·h/mL | 2500 ng/mL | 0.79 | 0.50 | 18500 ng·h/mL | 5870 ng/mL | 14800 ng·h/mL | 2730 ng/mL | 0.80 | 0.47 | Negative (negative if ratio fasted > fed) | 1.8 |  | Food Effect [4, 15]: Negative (negative if ratio fasted > fed); AUC Ratio of Ratios (Sim'd / Obs'd) ([5]; Model 1): 1.08; Cmax Ratio of Ratios (Sim'd / Obs'd) ([5]; Model 1): 1.48 |
| Cc1[nH]c2ccccc2c1CCNCc1ccc(/C=C/C(=O)NO)cc1 [Panobinostat] | 1.25 | 1.42 | 230 ×10⁻⁶ cm/s |  | 11 (Caco-2)^^ × 10^−6 cm/s | 148 ng·h/mL | 17.5 ng/mL | 124 ng·h/mL | 9.8 ng/mL | 0.84 | 0.56 | 128 ng·h/mL | 17.5 ng/mL | 108 ng·h/mL | 9.8 ng/mL | 0.85 | 0.56 | None (none if no significant change in AUC and Cmax with food) | 9 | 8.35 | Food Effect [4, 15]: None (none if no significant change in AUC and Cmax with food); Solubility at pH 6.5 [6]: 261^^ μg/ml; AUC Ratio of Ratios (Sim'd / Obs'd) ([5]; Model 1): 1.25; Cmax Ratio of Ratios (Sim'd / Obs'd) ([5]; Model 1): 0.61; FaSSIF solubility [7]: 140^^ μg/ml; FeSSIF solubility [7]: 230^^ μg/ml |
| CCc1nn(CCCN2CCN(c3cccc(Cl)c3)CC2)c(=O)n1CCOc1ccccc1 [Nefazodone HCl] | 1.47 | 1.05 | 220 ×10⁻⁶ cm/s | 5380 µg/mL | 11 (Caco-2) ^^ × 10^−6 cm/s | 1540 ng·h/mL | 301 ng/mL | 1240 ng·h/mL | 295 ng/mL | 0.80 | 0.98 | 1540 ng·h/mL | 301 ng/mL | 1240 ng·h/mL | 295 ng/mL | 0.80 | 0.98 | Negative (negative if ratio fasted > fed) |  |  | solubility [3, 17]: 1390 µg/mL; solubility [3, 18]: 3100 µg/mL; food effect (FE) direction ([4]; ref drug label): negative FE; pKa (b, basic) (pKa): 6.50b; AUC Ratio of Ratios (Sim'd / Obs'd) ([5]; Model 1): 0.97; Cmax Ratio of Ratios (Sim'd / Obs'd) ([5]; Model 1): 0.84 |
| COCCc1ccc(OCC(O)CNC(C)C)cc1 (stereo not drawn) [Metoprolol] |  |  |  | 17100 µg/mL (≈ 64000 µM) |  | 302 ng·h/mL | 111 ng/mL | 426 ng·h/mL | 148 ng/mL |  |  |  |  |  |  |  |  |  |  |  |  |
| C[C@@H](O[C@H]1OCCN(Cc2n[nH]c(=O)[nH]2)[C@H]1c1ccc(F)cc1)c1cc(C(F)(F)F)cc(C(F)(F)F)c1 [Aprepitant] |  |  | 240 ×10⁻⁶ cm/s |  |  |  |  |  |  |  |  | 8570 ng·h/mL | 496 ng/mL | 24100 ng·h/mL | 1100 ng/mL |  |  |  | 2.45 | 9.15 | BCS (BCS classification): II/IV; AUC observed, fasted ([4]; 100 mg micronized): 8571 ng·h/mL; AUC observed, fed ([4]; 100 mg micronized): 24,057 ng.h/ml; Cmax observed, fasted ([4]; 100 mg micronized): 496 ng/mL; Cmax observed, fed ([4]; 100 mg micronized): 1098 ng/mL; Food Effect ([4]; Micronized, fed vs fasted, compiled by literature search): Positive (positive if the ratio of fed > fasted); Food Effect ([4]; Nanonized, fed vs fasted, compiled by literature search): None (none if no significant change in AUC and Cmax with food); increase in AUC with food [4, 19]: 2.8 fold; increase in Cmax with food [4, 19]: 2.2 fold; Solubility at pH 6.5 [6]: 0.7 μg/ml; solubility in US Pharmacopeia Simulated Intestinal Fluids (SIFsp) ([6]; pH 6.8): 0.7 µg/mL (≈ 1.31 µM); solubility in water ([6]; pH 8.0, thermodynamically stable form): 7 µg/mL (≈ 13.1 µM); FaSSIF solubility [7]: 5.4 µg/mL; FeSSIF solubility [7]: 92.4 µg/mL |
| CC(C)(C)c1nc(-c2cccc(NS(=O)(=O)c3c(F)cccc3F)c2F)c(-c2ccnc(N)n2)s1 [Dabrafenib] |  |  |  | 1 µg/mL (≈ 1.92 µM) |  |  |  |  |  |  |  | 12100 ng·h/mL | 2160 ng/mL | 8470 ng·h/mL | 1070 ng/mL | 0.70 | 0.49 | Negative (negative if ratio fasted > fed) | 2.2 | 6.6 | FaSSIF solubility [7]: 6.2^^ μg/ml; FeSSIF solubility [7]: 6.8^^ μg/ml |
| CC1(C)CCC(CN2CCN(c3ccc(C(=O)NS(=O)(=O)c4ccc(NCC5CCOCC5)c([N+](=O)[O-])c4)c(Oc4cnc5[nH]ccc5c4)c3)CC2)=C(c2ccc(Cl)cc2)C1 [Venetoclax] | 0.79 | 0.75 |  | 6 µg/mL (≈ 6.91 µM) |  |  |  |  |  |  |  | 2080 ng·h/mL | 150 ng/mL | 7100 ng·h/mL | 500 ng/mL | 3.41 | 3.33 | Positive (positive if the ratio of fed > fasted) | 10.3 | 3.4 | solubility [3, 17]: 0.0337 µg/mL (≈ 0.0388 µM); solubility [3, 18]: 26.4 µg/mL (≈ 30.4 µM); Food Effect [4, 15]: Positive (positive if the ratio of fed > fasted) |
